The values that follow come from article PMC9268243, “Metabolic Behaviors of Aconitum Alkaloids in Different Concentrations of Aconiti Lateralis Radix Praeparata and Effects of Aconitine in Healthy Human and Long QT Syndrome Cardiomyocytes” (Molecules, 2022).

Series [1] in a line: Pharmacokinetic study of six aconitum alkaloids in rat plasma after oral Fu Zi extracts (UPLC-MS/MS). It counts as in vivo, Sprague Dawley rats. Conditions: both sexes, Sprague Dawley, in vivo, SD rat plasma, mean ± SD, n = 8; for AUC(0-t): read-out: AUC(0–48h); for CL/F: read-out: CLz/F (converted); for Vd/F: read-out: Vz/F; for half-life: read-out: t1/2z (converted). On the procedure: Fu Zi (200 g) was taken and broken by a pulverizer to the size of 0.5–1.0 cm. The broken Fu Zi was soaked in 1.6 L distilled water and boiled for 0.5 h. The filtrate was collected and the previous step was repeated for the filtered residue. The mixed filtrates were precipitated with 60% ethanol, and then centrifuged (2000× g, 10 min). The supernatant was decompressed and concentrated to a final density of 2.0 g/mL by the amount of the crude drugs. The final concentration of ethanol in Fu Zi extracts before administration was below 0.5%. The extract was subsequently kept at −20 °C for oral administration to rats.
All samples were analyzed on UPLC® I-Class and Xevo® TQS mass spectrometry combined system. Separations by a Waters ACQUITY UPLC® HSS T3(2.1 mm × 100 mm, 1.8 μm) column were conducted with a mobile phase of water (A) and acetonitrile (B), both containing 0.1% formic acid, at the flow rate of 0.3 mL·min^−1.The run time was 5.0 min and the gradient elution program was adopted as follows: 0–0.3 min, 10% B; 0.3–1 min, 10–50% B; 1–2.5 min, 50–90% B; 2.5–3 min, 90% B; 3–5 min, 10% B. The temperature of the column and samples were set at 45 °C and 10 °C, respectively. The volume of injection was 2 μL.
The detection was quantified by a triple quadrupole mass spectrometer that was set as multiple reactive monitoring (MRM) in the electrospray positive ionization mode (ESI+). The correlative parameters were as follows: capillary voltage: 3 kV; desolvation gas flow: 800 L·h^−1; cone gas flow: 150 L·h^−1; source temperature: 150 °C; desolvation temperature: 500 °C.
The method of […] was utilized. An amount of 100 μL of plasma samples from rats after oral administration of Fu Zi extracts was precipitated with 300 μL of 50% acetonitrile plus 50% methanol, vortexed for 1.0 min and centrifuged at a speed of 12,000× g at 4 °C for 10 min. The supernatant was transferred to another 1.5 mL centrifuge tube, dried with a stream of nitrogen at 40 °C, redissolved in 50 μL methanol and centrifuged at 12,000× g for 10 min. Then, the supernatant was pipetted out into the autosampler vials and analyzed by UPLC-MS/MS system.
24 Sprague Dawley rats (half male and female, weight 180–220 g) were purchased from Beijing Weitong Lihua Biotechnology Co.Ltd. (Beijing, China). The license number of experimental animal production was SCXK (Jing) 2016–0006. The animals were maintained under a standard laboratory condition (humidity: 40–70%, room temperature: 20–26 °C, […], 12 h dark-light cycle) and fed separately. All animal experiments were conducted according to the Guide for the Care and Use of Laboratory Animals (National Research Council of the USA, 1996) and approved by the Institutional Animal Care and Use Committee (IACUC-DWZX-2020-776). After 5 days of acclimation, the rats were fasted for 12 h but provided with water freely before the experiments. The rats were randomly divided into 3 groups: high (2.0 g/kg), middle (1.0 g/kg), and low (0.5 g/kg) dose groups. The Fu Zi extracts was administered to each rat intragastrically. An equivalent of 0.20 mL blood samples were collected from the fossa orbitalis vein into 1.5 mL heparinized centrifuge tubes at the designated time points after dosing: 0.08, 0.25, 0.5, 1, 2, 4, 8, 12, 24, and 48 h. The plasma samples were pipetted out into another 1.5 mL centrifuge tubes after being centrifuged at 5000× g for 10 min and then stored at −20 °C until further analysis.
The data were acquired by […] from Waters (UNIFI). Microsoft Office Excel and the SPSS software (Version 13.0) was used for data analysis. The data below the LLOQ were regarded as zero in summary statistics. The pharmacokinetic parameters were calculated by DAS pharmacokinetic program (Version 2.0) and all analyzed by non-compartmental method. […] All data were presented as mean ± SD. […]

Series [2] deals with T1, L-type calcium current (ICa,L) in LQTS hiPSC-CMs (Homo sapiens, UniProt Q13936).
T1 construct: endogenous in cells; host or cells: LQTS patient-derived hiPSC cardiomyocytes
Kind of series: Patch-clamp L-type calcium current, LQTS hiPSC-CMs. It counts as cell-based. The source says:
(§1) Standard patch-clamp techniques were used to record action potentials, and L-type calcium currents. Composition of intracellular fluid and extracellular fluid were shown in Table 7 and Table 8, respectively. The signal was amplified using an HEKA EPC-10 patch-clamp amplifier (HEKA, Electronics, Ludwigshafen, Germany) and low-pass filtered at 5 kHz. Patch pipettes were fabricated from glass capillaries using a Sutter P-97 microelectrode puller (Novato, CA, USA) and the tips were heat polished with a microforge (NARISHIGE MF-900) to gain a resistance of 2–5 MΩ. Data acquisition was achieved using HEKA Patchmaster (V2x73.2). Data analysis and fit were performed using Clamfit and Graphpad Prism 6.0. The experiment was conducted at 37 °C. One cell can test one or more drugs, or multiple concentrations of the same drug but needs to be rinsed with extracellular fluid between each test. Nifedipine (Sigma) was used as a positive control to ensure cell quality. External solution containing 0.1% DMSO was applied as vehicle to establish the baseline. Recording was done at a temperature-controlled room of 35–37 degrees Celsius.
(§2) Isoproterenol, nifedipine, and AC were purchased from Sigma-Aldrich, which were resolved in DMSO (Sigma-Aldrich, D2650). Drug compounds final concentration were AC (0.05, 0.5,5 μM), nifedipine (1 μM), isoproterenol (3 μM), respectively. Dilutions were prepared within 60 min of treatment. All the compound solutions were subjected to regular 10 min ultrasound and oscillations to ensure that compounds were completely dissolved. Equal amounts of DMSO (0.1%) were used as the vehicle controls.
(In general: The patch-clamp technique gives a direct electrical read-out from membranes.)

Series [3] addresses T2, L-type calcium current (ICa,L) in normal hiPSC-CMs (Homo sapiens, UniProt Q13936).
T2 construct: endogenous in cells; host or cells: normal hiPSC-derived cardiomyocytes (hiPSC-CMs)
Briefly: Patch-clamp L-type calcium current, normal hiPSC-CMs. Format: cell-based.
Excerpt: as §1, §2

Like-named read-outs stand apart in the source and are kept apart here.

T2 sequence (Q13936 whole entry): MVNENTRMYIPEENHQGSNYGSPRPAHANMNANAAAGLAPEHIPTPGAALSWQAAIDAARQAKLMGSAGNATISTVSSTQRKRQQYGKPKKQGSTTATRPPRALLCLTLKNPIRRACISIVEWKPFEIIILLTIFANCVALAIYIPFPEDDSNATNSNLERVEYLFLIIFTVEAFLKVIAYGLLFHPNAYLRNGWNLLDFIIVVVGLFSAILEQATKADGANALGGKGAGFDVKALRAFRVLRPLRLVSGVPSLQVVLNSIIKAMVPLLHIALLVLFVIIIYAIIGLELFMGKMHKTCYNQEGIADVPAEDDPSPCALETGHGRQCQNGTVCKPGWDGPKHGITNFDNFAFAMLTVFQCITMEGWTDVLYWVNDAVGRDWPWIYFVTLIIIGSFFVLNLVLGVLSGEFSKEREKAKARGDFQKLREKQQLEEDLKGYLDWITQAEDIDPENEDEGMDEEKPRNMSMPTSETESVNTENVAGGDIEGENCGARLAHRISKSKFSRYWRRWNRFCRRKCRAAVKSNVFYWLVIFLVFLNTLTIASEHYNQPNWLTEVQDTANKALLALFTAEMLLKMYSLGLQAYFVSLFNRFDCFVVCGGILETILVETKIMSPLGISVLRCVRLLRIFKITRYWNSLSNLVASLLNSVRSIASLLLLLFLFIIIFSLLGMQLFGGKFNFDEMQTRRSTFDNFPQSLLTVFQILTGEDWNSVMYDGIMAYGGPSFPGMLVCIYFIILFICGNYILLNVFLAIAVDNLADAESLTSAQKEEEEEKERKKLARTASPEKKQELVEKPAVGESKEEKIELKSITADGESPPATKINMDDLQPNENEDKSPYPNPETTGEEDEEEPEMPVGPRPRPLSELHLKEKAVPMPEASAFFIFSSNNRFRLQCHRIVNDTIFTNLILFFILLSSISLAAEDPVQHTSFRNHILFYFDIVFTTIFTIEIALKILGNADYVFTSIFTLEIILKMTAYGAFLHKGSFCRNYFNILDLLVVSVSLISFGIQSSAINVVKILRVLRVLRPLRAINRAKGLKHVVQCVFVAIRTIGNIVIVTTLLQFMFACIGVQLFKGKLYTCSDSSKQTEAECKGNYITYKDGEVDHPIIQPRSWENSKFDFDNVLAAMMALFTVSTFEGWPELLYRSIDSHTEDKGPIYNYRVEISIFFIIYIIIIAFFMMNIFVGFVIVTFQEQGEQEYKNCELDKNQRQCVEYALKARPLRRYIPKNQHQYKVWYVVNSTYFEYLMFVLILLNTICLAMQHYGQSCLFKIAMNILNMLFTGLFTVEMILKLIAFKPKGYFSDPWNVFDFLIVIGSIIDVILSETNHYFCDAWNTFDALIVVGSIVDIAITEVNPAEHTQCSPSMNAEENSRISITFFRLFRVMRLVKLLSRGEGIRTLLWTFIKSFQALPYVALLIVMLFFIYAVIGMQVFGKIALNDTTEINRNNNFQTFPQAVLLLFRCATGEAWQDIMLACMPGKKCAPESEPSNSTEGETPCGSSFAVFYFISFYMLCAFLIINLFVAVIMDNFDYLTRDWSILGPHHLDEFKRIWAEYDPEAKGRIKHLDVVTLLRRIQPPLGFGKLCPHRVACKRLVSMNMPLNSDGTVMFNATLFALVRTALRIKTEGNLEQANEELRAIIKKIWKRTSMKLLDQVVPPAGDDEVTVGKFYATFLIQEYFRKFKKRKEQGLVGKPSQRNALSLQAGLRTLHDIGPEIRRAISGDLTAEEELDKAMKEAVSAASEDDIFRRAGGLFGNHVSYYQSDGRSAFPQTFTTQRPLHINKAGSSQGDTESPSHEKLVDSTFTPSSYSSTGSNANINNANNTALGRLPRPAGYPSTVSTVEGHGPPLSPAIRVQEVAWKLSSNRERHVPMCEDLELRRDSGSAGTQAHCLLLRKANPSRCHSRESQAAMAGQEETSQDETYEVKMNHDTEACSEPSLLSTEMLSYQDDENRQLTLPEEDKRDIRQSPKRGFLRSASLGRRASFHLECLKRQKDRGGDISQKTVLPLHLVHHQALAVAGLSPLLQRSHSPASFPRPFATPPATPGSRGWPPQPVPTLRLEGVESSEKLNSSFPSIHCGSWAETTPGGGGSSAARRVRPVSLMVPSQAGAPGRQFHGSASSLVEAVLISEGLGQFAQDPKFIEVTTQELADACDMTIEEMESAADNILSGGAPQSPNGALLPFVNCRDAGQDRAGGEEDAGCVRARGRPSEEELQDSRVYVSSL
T2 sequence (Q08289 whole entry partner): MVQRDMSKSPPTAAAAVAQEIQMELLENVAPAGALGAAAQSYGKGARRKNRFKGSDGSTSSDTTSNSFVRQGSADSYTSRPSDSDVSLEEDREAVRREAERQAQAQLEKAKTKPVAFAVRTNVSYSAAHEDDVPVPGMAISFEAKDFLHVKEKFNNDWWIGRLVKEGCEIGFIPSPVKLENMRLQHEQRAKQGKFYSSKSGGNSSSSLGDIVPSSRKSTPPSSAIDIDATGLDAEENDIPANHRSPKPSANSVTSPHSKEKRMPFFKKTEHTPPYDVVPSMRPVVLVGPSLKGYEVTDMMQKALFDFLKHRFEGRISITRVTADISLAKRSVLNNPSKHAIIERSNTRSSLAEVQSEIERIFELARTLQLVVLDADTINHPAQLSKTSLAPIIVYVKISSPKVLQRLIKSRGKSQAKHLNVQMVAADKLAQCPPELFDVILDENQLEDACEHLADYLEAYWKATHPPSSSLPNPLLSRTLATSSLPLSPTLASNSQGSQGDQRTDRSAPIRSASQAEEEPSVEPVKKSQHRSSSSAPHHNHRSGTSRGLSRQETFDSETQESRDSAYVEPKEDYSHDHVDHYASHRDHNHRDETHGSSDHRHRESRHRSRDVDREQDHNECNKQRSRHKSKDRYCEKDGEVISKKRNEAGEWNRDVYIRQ
T2 sequence (P54289 25-956 partner limits assumed): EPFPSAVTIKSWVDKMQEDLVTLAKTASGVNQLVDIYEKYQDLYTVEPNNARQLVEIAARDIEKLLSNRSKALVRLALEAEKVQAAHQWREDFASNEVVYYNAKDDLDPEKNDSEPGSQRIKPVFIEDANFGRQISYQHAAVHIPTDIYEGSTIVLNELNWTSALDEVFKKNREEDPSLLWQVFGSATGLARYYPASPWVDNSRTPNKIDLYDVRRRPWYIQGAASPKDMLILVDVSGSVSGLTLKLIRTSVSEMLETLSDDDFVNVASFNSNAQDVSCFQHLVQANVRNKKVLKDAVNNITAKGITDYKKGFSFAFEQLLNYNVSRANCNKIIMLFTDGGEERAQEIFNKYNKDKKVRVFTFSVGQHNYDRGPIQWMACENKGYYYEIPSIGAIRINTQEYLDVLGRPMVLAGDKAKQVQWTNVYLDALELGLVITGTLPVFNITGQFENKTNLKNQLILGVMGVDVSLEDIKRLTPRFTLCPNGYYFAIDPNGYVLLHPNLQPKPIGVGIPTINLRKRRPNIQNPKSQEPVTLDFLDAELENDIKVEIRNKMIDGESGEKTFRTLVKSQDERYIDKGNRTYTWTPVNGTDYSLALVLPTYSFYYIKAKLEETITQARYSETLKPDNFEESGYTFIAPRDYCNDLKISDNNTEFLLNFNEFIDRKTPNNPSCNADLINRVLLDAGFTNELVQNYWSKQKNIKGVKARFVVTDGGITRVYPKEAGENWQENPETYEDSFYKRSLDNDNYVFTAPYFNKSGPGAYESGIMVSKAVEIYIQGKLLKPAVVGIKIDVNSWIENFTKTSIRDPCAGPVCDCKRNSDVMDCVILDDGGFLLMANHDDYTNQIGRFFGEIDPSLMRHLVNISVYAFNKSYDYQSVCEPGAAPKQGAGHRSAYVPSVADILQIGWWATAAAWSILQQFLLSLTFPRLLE
T2 sequence (P54289 957-1103 partner limits assumed): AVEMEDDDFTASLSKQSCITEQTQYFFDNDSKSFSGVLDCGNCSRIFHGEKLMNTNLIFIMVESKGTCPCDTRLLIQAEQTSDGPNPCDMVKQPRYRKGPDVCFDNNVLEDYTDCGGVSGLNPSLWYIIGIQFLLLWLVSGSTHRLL
T1 sequence (Q13936 whole entry): as the sequence (Q13936 whole entry) above
T1 sequence (Q08289 whole entry partner): as the sequence (Q08289 whole entry partner) above
T1 sequence (P54289 25-956 partner limits assumed): as the sequence (P54289 25-956 partner limits assumed) above
T1 sequence (P54289 957-1103 partner limits assumed): as the sequence (P54289 957-1103 partner limits assumed) above

In the case of `CCN1C[C@]2(COC)[C@H](O)C[C@H](OC)[C@@]34[C@@H]5C[C@@]6(O)[C@H](OC(=O)c7ccccc7)[C@@H]5[C@@](OC(C)=O)([C@@H]([C@H](OC)[C@H]23)[C@@H]14)[C@@H](O)[C@@H]6OC` [AC, aconitine], the Cmax is 1.28 ± 0.34 ng/mL in series [1] (oral Fu Zi extracts 0.5 g/kg), 1.69 ± 0.33 ng/mL in series [1] (oral Fu Zi extracts 1.0 g/kg) and 2.27 ± 0.7 ng/mL in series [1] (oral Fu Zi extracts 2.0 g/kg). Moreover, the figures for the Tmax in series [1] (oral Fu Zi extracts 0.5 g/kg), in series [1] (oral Fu Zi extracts 1.0 g/kg) and in series [1] (oral Fu Zi extracts 2.0 g/kg) were 4.38 ± 3.11 h, 3.13 ± 1.25 h and 1.03 ± 0.84 h, respectively. Moreover, the AUC(0-t) in series [1] (oral Fu Zi extracts 0.5 g/kg) was found to be 13.5 ± 3.28 ng·h/mL; in series [1] (oral Fu Zi extracts 1.0 g/kg), 17.1 ± 4.68 ng·h/mL; in series [1] (oral Fu Zi extracts 2.0 g/kg), 23.8 ± 7.77 ng·h/mL. The CL/F in series [1] (oral Fu Zi extracts 0.5 g/kg) was 77 mL/min/kg; in series [1] (oral Fu Zi extracts 1.0 g/kg), 106 mL/min/kg; in series [1] (oral Fu Zi extracts 2.0 g/kg) it was 148 mL/min/kg. The Vd/F came to 14 ± 4.33 L/kg in series [1] (oral Fu Zi extracts 0.5 g/kg), 70 ± 33.4 L/kg in series [1] (oral Fu Zi extracts 1.0 g/kg) and 167 ± 80.1 L/kg in series [1] (oral Fu Zi extracts 2.0 g/kg). The half-life in series [1] (oral Fu Zi extracts 0.5 g/kg) is 1.9 ± 0.31 h; in series [1] (oral Fu Zi extracts 1.0 g/kg), 7.53 ± 2.74 h; in series [1] (oral Fu Zi extracts 2.0 g/kg), 11.5 ± 4.3 h. Also, the “peak value of L-type calcium current” value is on record as “significantly decreased” in series [2] (LQT group, 0.05–5 μM) and “significantly decreased” in series [3] (normal group, 0.05–5 μM). Besides, the IC50 in series [2] (LQT hiPSC-CMs, tested 0.05–5 μM, no concentration dependence, read-out: IC50, inhibition of L-type calcium current) is > 5 µM; in series [2] (LQTS hiPSC-CMs, estimated beyond tested range 0.05–5 μM, read-out: IC50 (eIC50) on ICa,L), 27.2 µM; in series [3] (normal (control) hiPSC-CMs, tested 0.05–5 μM, no concentration dependence, read-out: IC50, inhibition of L-type calcium current), > 5 µM; in series [3] (normal hiPSC-CMs, estimated beyond tested range 0.05–5 μM, read-out: IC50 (eIC50) on ICa,L), 27.5 µM.

By Cmax is commonly meant the peak of the concentration-time curve. What is called Tmax is the time at which the peak concentration occurs. Broadly, the IC50 is the concentration that gives 50% inhibition.
